Measured values reported in ChEMBL document CHEMBL1152141, “Pyrrolo-pyrimidones: a novel class of MK2 inhibitors with potent cellular activity” (Bioorg Med Chem Lett, 2008).
Values after ≈ are worked out from the molar mass of the structure shown.

Experiments:
PBMC = test: Inhibition of LPS-stimulated TNFalpha release from human PBMC after 3 hrs
[1] = target: Mitogen-activated protein kinase 1 (Homo sapiens, UniProt P28482); test: Inhibition of ERK2
[2] = target: Mitogen-activated protein kinase 9 (Homo sapiens, UniProt P45984); test: Inhibition of JNK2
[3] = target: MAP kinase-activated protein kinase 5 (Homo sapiens, UniProt Q8IW41); test: Inhibition of MK5
[4] = target: Heat shock protein beta-1 (Homo sapiens) (UniProt P04792); test: Inhibition of LPS-stimulated hsp27 phosphorylation in 1 hr pretreated human THP1 cells by Western blot; format: cell-based; details: THP-1
[5] = Inhibition of PKA
Aurora kinase A = Aurora kinase A (Homo sapiens, UniProt O14965); test: Inhibition of Aurora A
Insulin receptor = Insulin receptor (Homo sapiens, UniProt P06213); test: Inhibition of Ins1R
[6] = target: Receptor tyrosine-protein kinase erbB-2 (Homo sapiens, UniProt P04626); test: Inhibition of HER2
[7] = target: Epidermal growth factor receptor (Homo sapiens, UniProt P00533)
[8] = target: Mast/stem cell growth factor receptor Kit (Homo sapiens, UniProt P10721); test: Inhibition of c-Kit
[9] = Thermodynamic solubility at pH 6.8; format: physicochemical; details: buffer
Ephrin type-A receptor 4 = Ephrin type-A receptor 4 (Homo sapiens, UniProt P54764); test: Inhibition of EphA4
[10] = target: Fibroblast growth factor receptor 4 (Homo sapiens, UniProt P22455); test: Inhibition of FGFR4
[11] = target: Tyrosine-protein kinase JAK2 (Homo sapiens, UniProt O60674); test: Inhibition of JAK2
[12] = target: Tyrosine-protein kinase JAK3 (Homo sapiens, UniProt P52333); test: Inhibition of JAK3
[13] = target: Glycogen synthase kinase-3 beta (Homo sapiens, UniProt P49841); test: Inhibition of GSK3b
Ephrin type-B receptor 4 = Ephrin type-B receptor 4 (Homo sapiens, UniProt P54760); test: Inhibition of EphB4
[14] = target: Vascular endothelial growth factor receptor 2 (Homo sapiens, UniProt P35968); test: Inhibition of KDR
[15] = target: Insulin-like growth factor 1 receptor (Homo sapiens, UniProt P08069); test: Inhibition of IGF1R
MAP kinase p38 = MAP kinase p38 (Homo sapiens, UniProt O15264+Q15759+Q16539+P53778); test: Inhibition of human p38; format: protein assay
[16] = target: Mitogen-activated protein kinase 8 (Homo sapiens, UniProt P45983); test: Inhibition of JNK1
[17] = target: Cyclin-dependent kinase 2 (Homo sapiens, UniProt P24941); test: Inhibition of CDK2
[18] = target: Hepatocyte growth factor receptor (Homo sapiens, UniProt P08581); test: Inhibition of c-Met
[19] = target: Tyrosine-protein kinase BTK (Homo sapiens, UniProt Q06187); test: Inhibition of Btk
[20] = target: ALK tyrosine kinase receptor (Homo sapiens, UniProt Q9UM73); test: Inhibition of Alk
[21] = target: MAP kinase-activated protein kinase 2 (Homo sapiens, UniProt P49137)
[22] = target: RAC-alpha serine/threonine-protein kinase (Homo sapiens, UniProt P31749); test: Inhibition of PKB
[23] = target: Tyrosine-protein kinase SYK (Homo sapiens, UniProt P43405)

Sequence of Mitogen-activated protein kinase 8 (P45983 whole entry): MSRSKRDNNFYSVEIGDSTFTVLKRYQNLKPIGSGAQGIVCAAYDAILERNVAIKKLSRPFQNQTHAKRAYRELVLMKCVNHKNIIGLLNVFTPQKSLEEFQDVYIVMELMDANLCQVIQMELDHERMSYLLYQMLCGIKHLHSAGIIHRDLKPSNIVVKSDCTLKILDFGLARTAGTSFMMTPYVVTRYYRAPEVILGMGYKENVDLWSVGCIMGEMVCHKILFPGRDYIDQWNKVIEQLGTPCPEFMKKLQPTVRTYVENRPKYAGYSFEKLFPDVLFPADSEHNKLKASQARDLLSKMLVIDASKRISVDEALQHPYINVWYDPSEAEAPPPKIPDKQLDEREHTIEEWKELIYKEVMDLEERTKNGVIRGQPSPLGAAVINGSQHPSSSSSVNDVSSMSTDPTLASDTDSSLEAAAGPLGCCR
Sequence of Mast/stem cell growth factor receptor Kit (P10721 whole entry): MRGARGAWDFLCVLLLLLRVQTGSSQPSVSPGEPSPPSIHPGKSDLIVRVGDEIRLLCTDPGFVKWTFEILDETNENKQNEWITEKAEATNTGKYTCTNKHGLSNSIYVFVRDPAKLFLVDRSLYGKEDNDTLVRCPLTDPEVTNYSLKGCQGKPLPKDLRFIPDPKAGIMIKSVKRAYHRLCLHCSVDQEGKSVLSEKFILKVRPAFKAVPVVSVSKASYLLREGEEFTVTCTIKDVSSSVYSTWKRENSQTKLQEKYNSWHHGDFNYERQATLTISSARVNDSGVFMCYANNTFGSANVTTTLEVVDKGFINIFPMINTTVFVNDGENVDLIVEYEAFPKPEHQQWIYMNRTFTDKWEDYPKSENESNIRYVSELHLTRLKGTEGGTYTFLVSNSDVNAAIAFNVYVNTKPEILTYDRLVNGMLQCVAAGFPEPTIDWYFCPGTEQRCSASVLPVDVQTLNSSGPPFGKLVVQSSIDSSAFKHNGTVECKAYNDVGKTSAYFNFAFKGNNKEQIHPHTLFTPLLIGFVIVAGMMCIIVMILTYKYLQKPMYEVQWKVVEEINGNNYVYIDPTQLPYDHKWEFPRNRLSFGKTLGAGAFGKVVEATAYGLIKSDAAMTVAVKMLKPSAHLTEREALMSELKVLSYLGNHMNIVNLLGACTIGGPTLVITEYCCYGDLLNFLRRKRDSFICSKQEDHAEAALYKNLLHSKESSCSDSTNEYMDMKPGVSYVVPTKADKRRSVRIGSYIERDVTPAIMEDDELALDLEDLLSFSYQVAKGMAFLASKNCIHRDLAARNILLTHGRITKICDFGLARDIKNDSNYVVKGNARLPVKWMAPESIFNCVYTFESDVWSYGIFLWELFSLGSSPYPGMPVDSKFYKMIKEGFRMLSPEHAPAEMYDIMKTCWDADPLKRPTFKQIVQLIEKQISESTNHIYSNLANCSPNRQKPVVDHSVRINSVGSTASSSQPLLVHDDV
Sequence of Glycogen synthase kinase-3 beta (P49841 whole entry): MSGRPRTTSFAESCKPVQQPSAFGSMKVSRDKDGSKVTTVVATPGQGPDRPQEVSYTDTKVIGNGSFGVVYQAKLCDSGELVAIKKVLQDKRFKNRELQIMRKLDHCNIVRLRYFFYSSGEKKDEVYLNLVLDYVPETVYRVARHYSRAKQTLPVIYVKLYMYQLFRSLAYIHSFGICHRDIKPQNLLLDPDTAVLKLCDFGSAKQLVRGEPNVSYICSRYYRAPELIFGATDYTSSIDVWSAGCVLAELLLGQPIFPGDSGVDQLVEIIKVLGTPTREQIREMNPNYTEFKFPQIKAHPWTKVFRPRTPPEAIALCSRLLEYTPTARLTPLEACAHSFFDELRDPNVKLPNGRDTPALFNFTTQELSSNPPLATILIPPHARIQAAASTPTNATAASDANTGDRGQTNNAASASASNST
Sequence of Hepatocyte growth factor receptor (P08581 whole entry): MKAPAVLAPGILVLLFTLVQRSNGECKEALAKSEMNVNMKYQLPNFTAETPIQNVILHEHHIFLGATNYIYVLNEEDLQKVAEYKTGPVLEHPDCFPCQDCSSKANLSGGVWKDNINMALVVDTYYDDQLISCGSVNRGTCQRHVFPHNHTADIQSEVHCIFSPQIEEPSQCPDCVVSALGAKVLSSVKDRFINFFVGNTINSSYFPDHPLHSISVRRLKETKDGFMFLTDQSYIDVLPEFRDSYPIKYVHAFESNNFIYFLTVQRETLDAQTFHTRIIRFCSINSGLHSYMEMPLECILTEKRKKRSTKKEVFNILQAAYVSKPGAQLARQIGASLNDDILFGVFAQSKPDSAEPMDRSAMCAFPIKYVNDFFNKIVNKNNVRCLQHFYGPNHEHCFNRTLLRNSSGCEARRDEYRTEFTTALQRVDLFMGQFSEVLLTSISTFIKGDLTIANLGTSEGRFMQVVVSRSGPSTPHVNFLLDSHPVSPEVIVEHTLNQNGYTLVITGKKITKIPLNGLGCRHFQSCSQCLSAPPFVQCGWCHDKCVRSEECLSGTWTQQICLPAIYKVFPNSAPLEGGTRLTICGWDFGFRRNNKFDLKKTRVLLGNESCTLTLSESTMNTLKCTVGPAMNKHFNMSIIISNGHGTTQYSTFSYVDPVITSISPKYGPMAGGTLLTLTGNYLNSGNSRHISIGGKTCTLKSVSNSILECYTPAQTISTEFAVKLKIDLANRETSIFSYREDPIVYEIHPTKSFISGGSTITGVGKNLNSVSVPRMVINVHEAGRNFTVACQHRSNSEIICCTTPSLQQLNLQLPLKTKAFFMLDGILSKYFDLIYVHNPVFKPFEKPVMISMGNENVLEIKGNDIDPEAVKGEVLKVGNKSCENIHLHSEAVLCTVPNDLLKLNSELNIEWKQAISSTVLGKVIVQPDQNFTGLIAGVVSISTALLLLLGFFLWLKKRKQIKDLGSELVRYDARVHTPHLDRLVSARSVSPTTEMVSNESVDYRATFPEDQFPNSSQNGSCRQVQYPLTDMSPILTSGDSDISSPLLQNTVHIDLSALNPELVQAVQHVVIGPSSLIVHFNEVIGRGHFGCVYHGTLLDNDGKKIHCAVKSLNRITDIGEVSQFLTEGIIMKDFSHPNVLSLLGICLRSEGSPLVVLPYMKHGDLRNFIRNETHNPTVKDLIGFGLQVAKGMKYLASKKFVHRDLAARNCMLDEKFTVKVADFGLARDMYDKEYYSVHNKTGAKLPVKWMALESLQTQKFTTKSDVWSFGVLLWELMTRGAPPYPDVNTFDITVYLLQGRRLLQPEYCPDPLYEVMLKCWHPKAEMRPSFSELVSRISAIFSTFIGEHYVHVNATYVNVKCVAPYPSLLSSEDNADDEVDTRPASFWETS
Sequence of Ephrin type-A receptor 4 (P54764 whole entry): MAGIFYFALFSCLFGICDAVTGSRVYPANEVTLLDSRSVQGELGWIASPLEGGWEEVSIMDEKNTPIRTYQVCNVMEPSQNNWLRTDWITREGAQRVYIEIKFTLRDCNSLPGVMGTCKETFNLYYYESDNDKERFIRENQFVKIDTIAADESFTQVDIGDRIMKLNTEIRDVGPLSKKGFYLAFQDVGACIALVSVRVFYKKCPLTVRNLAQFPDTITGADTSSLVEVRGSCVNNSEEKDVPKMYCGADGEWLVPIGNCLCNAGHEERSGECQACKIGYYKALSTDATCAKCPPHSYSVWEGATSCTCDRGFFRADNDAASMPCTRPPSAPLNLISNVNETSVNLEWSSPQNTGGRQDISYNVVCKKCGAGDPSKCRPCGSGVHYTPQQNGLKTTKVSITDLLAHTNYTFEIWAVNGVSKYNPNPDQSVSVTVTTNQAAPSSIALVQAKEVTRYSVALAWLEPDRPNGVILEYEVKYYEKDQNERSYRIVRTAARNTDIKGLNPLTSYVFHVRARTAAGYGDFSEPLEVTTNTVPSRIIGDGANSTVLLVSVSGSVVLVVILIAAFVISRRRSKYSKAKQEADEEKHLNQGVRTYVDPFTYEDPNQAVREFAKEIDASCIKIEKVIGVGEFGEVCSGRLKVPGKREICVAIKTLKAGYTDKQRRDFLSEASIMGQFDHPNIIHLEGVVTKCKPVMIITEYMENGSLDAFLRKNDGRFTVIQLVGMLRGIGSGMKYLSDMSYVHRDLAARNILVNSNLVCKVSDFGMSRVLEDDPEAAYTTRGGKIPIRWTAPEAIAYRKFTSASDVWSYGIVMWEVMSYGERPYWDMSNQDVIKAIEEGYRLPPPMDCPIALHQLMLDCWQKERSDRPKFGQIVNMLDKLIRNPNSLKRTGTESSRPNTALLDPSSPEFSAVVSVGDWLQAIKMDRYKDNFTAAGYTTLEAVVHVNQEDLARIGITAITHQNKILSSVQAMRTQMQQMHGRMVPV
Sequence of MAP kinase-activated protein kinase 2 (P49137 whole entry): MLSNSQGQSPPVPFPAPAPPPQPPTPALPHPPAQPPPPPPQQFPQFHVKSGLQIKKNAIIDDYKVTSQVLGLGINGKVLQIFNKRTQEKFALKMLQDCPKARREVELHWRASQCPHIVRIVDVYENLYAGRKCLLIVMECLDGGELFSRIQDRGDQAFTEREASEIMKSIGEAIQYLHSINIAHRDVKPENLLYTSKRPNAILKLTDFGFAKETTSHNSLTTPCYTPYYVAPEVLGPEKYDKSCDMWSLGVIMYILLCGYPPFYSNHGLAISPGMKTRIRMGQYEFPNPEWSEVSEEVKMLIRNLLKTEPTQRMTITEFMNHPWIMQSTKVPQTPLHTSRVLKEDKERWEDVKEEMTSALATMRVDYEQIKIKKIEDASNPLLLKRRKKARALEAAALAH
Sequence of MAP kinase-activated protein kinase 5 (Q8IW41 whole entry): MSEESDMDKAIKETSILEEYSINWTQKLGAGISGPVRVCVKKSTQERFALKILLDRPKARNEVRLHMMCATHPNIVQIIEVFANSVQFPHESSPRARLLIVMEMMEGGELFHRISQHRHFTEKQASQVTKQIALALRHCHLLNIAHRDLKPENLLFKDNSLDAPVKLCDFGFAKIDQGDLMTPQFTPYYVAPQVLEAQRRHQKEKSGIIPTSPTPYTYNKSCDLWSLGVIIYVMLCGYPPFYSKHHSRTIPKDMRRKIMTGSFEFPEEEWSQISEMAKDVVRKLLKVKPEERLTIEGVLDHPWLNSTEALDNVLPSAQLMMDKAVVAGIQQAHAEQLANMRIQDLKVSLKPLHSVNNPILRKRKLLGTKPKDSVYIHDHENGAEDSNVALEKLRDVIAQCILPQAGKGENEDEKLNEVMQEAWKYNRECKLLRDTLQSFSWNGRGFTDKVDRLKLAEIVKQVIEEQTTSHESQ

## O=c1[nH]c(Cc2ccccc2)nc2[nH]c(-c3ccnc(/C=C/c4ccccc4)c3)cc12
PBMC
  IC50: > 10000 nM

## CCN(CC)Cc1ccc(/C=C/c2cc(-c3cc4c(=O)[nH]cnc4[nH]3)ccn2)cc1
PBMC
  IC50: 380 nM

## CN(C)CCOc1ccc(/C=C/c2cc(-c3cc4c(=O)[nH]cnc4[nH]3)ccn2)cc1
[1]
  IC50: 2600 nM
[2]
  IC50: 240 nM
[3]
  IC50: 28 nM
[4]
  Activity: Dose-dependent effect
[5]
  IC50: > 10000 nM
Aurora kinase A
  IC50: 280 nM
PBMC
  IC50: 40 nM
Insulin receptor
  IC50: 7800 nM
[6]
  IC50: 9500 nM
[7]
  IC50: 3300 nM
[8]
  IC50: 6100 nM
[9]
  solubility thermodynamic: 410 µg/mL (≈ 1020 µM)
Ephrin type-A receptor 4
  IC50: 5600 nM
[10]
  IC50: 6800 nM
[11]
  IC50: 3600 nM
[12]
  IC50: 1000 nM
[13]
  IC50: 530 nM
Ephrin type-B receptor 4
  IC50: 1400 nM
[14]
  IC50: 190 nM
[15]
  IC50: 6400 nM
MAP kinase p38
  IC50: > 10000 nM
[16]
  IC50: 960 nM
[17]
  IC50: 8200 nM
[18]
  IC50: 140 nM
[19]
  IC50: > 10000 nM
[20]
  IC50: 4100 nM
[21]
  IC50: 82 nM
[22]
  IC50: > 10000 nM

## O=C(Nc1cc(-c2cc3c(=O)[nH]cnc3[nH]2)ccn1)c1ccc(C2CCCC2)cc1
PBMC
  IC50: 10000 nM

## Cc1nc2[nH]c(-c3ccnc(/C=C/c4ccccc4)c3)cc2c(=O)[nH]1
PBMC
  IC50: 1100 nM

## Nc1nc2[nH]c(-c3ccnc(/C=C/c4ccccc4)c3)cc2c(=O)[nH]1
PBMC
  IC50: 1500 nM

## O=c1[nH]cnc2[nH]c(-c3ccnc(/C=C/c4ccc(CN5CCOCC5)cc4)c3)cc12
[1]
  IC50: 1100 nM
[2]
  IC50: 950 nM
[3]
  IC50: 24 nM
[4]
  Activity: Dose-dependent effect
[5]
  IC50: 6700 nM
[23]
  IC50: 6200 nM
Aurora kinase A
  IC50: 93 nM
PBMC
  IC50: 110 nM
Insulin receptor
  IC50: > 10000 nM
[6]
  IC50: > 10000 nM
[8]
  IC50: 5200 nM
[9]
  solubility thermodynamic: 41 µg/mL (≈ 99.2 µM)
Ephrin type-A receptor 4
  IC50: > 10000 nM
[10]
  IC50: > 10000 nM
[11]
  IC50: 1300 nM
[12]
  IC50: 310 nM
[13]
  IC50: 300 nM
Ephrin type-B receptor 4
  IC50: 1700 nM
[14]
  IC50: 100 nM
[15]
  IC50: > 10000 nM
MAP kinase p38
  IC50: > 10000 nM
[16]
  IC50: 4000 nM
[17]
  IC50: > 10000 nM
[18]
  IC50: 85 nM
[19]
  IC50: > 10000 nM
[20]
  IC50: > 10000 nM
[21]
  IC50: 51 nM
[22]
  IC50: > 10000 nM

## O=c1[nH]cnc2[nH]c(-c3ccnc(/C=C/c4ccc(F)cc4)c3)cc12
PBMC
  IC50: 350 nM
[9]
  solubility thermodynamic: 3 µg/mL (≈ 9.03 µM)

## O=c1[nH]cnc2[nH]c(-c3ccnc(/C=C/c4ccccc4)c3)cc12
PBMC
  IC50: 2300 nM

## O=C(c1ccc(/C=C/c2cc(-c3cc4c(=O)[nH]cnc4[nH]3)ccn2)cc1)N1CCOCC1
PBMC
  IC50: 150 nM
[9]
  solubility thermodynamic: 9 µg/mL (≈ 21.1 µM)

## COc1ccc(-c2cc(-c3cc4c(=O)[nH]cnc4[nH]3)ccn2)cc1
PBMC
  IC50: > 10000 nM
